Results as given in patent publication US12252480B2, “Salt forms and polymorphs of (R)-1-(4-(6-(2-(4-(3,3-difluorocyclobutoxy)-6-methylpyridin-2-yl)acetamido) pyridazin-3-yl)-2-fluorobutyl)-n-methyl-1H-1,2,3-triazole-4-carboxamide” (Board of Regents, The University of Texas System, priority 2015, dated 2025).

Experiments:
A549 cells = experiment: Proliferation Assay (A549, Cell Titer Fluor); format: cell-based; conditions: Homo sapiens, 72 hours incubation, read-out: EC50 against A549 cell proliferation
Experimental: Proliferation Assay. A549 cells were routinely maintained in RPMI 1640 media (Gibco catalog number 11875-093) supplemented with 10% dialyzed fetal bovine serum using a humidified incubator (37° C., 5% CO2 and ambient O2). In preparation for the viability assay, cells were inoculated into 384-well black CulturPlates (Perkin Elmer) at a density of 1000 cells/well in a volume of 40 uL. Following a 24-hour incubation at 37° C., 5% CO2 and ambient O2, cells were treated with compound (10 uL) in a final DMSO concentration of 0.5% (v/v). The microplates were then incubated for 72 hours (37° C., 5% CO2 and ambient O2). Cell Titer Fluor (Promega) was subsequently added (10 uL of 6× reagent) and mixed for 15 minutes at room temperature. The plates were then incubated for 30 minutes (37° C., 5% CO2 and ambient O2) and fluorescence was subsequently read on the Perkin Elmer Envision plate reader. IC50 values were calculated using a four-parameter logistic curve fit.

[1] = Dynamic Vapor Sorption (DVS); format: physicochemical
Experimental: Dynamic Vapor Sorption (DVS) was examined with an SMS Advantage instrument. About 10 mg of sample was transferred into the instrument, and the weight change with respect to the atmospheric humidity at 25° C. was recorded accordingly, with the following parameters: Equilibrium: dm/dt: 0.01%/min. (for min: 10 min and max: 180 min); drying: 0% RH for 120 min; RH (%) measurement step: 10%; RH (%) measurement step scope: 0-90-0%.

CNC(=O)c1cn(C[C@H](F)CCc2ccc(NC(=O)Cc3cc(OC4CC(F)(F)C4)cc(C)n3)nn2)nn1 [Example 1, (R)-1-(4-(6-(2-(4-(3,3-difluorocyclobutoxy)-6-methylpyridin-2-yl)acetamido)pyridazin-3-yl)-2-fluorobutyl)-N-methyl-1H-1,2,3-triazole-4-carboxamide]
EC50 (A549 cells): < 100 nM

CNC(=O)c1cn(C[C@H](F)CCc2ccc(NC(=O)Cc3cc(OC4CC(F)(F)C4)cc(C)n3)nn2)nn1 [Polymorph D, (R)-1-(4-(6-(2-(4-(3,3-difluorocyclobutoxy)-6-methylpyridin-2-yl)acetamido)pyridazin-3-yl)-2-fluorobutyl)-N-methyl-1H-1,2,3-triazole-4-carboxamide]
hygroscopicity (DVS result) ([1]; 25° C., 0-80% RH): non-hygroscopic | Change of Mass, Desorption ([1]; Target % P/P0 0): 0.052% | Change of Mass, Sorption ([1]; Target % P/P0 0): 0.000% | Change of Mass, Desorption ([1]; Target % P/P0 10): 0.0276% | Change of Mass, Hysteresis ([1]; Target % P/P0 10): 0.0060% | Change of Mass, Sorption ([1]; Target % P/P0 10): 0.0216% | Change of Mass, Desorption ([1]; Target % P/P0 20): 0.0440% | Change of Mass, Hysteresis ([1]; Target % P/P0 20): 0.0104% | Change of Mass, Sorption ([1]; Target % P/P0 20): 0.0336% | Change of Mass, Desorption ([1]; Target % P/P0 30): 0.0587% | Change of Mass, Hysteresis ([1]; Target % P/P0 30): 0.0112% | Change of Mass, Sorption ([1]; Target % P/P0 30): 0.0474% | Change of Mass, Desorption ([1]; Target % P/P0 40): 0.0759% | Change of Mass, Hysteresis ([1]; Target % P/P0 40): 0.0181% | Change of Mass, Sorption ([1]; Target % P/P0 40): 0.0578% | Change of Mass, Desorption ([1]; Target % P/P0 50): 0.0906% | Change of Mass, Hysteresis ([1]; Target % P/P0 50): 0.0216% | Change of Mass, Sorption ([1]; Target % P/P0 50): 0.0690% | Change of Mass, Desorption ([1]; Target % P/P0 60): 0.1087% | Change of Mass, Hysteresis ([1]; Target % P/P0 60): 0.0259% | Change of Mass, Sorption ([1]; Target % P/P0 60): 0.0828% | Change of Mass, Desorption ([1]; Target % P/P0 70): 0.1294% | Change of Mass, Hysteresis ([1]; Target % P/P0 70): 0.0259% | Change of Mass, Sorption ([1]; Target % P/P0 70): 0.1035% | Change of Mass, Desorption ([1]; Target % P/P0 80): 0.1527% | Change of Mass, Hysteresis ([1]; Target % P/P0 80): 0.0190% | Change of Mass, Sorption ([1]; Target % P/P0 80): 0.1337% | Change of Mass, Desorption ([1]; Target % P/P0 90): 0.1768% | Change of Mass, Sorption ([1]; Target % P/P0 90): 0.1768% | form transformation after DVS (XRPD overlay) ([1]; after DVS 0-90-0% RH): no form transformation | water sorption ([1]; from 0-80% RH, 25° C.): 0.1%
